Assay results taken from paper PMC9814838, “The orphan nuclear receptor Nurr1 is responsive to non-steroidal anti-inflammatory drugs” (Communications Chemistry, 2020).
Values joined by “and” are separate entries in the source; they are usually repeats but may differ in a detail not shown here. Equal values may be shown once. “Also recorded” adds a separate entry of the source. No end group written: not given here. fluorescein = fluorescein label on the N-terminus

T1: NOR1 (Homo sapiens, UniProt Q92570)
T1 construct: NOR1 (isoform alpha; uniprot entry: hNOR1–Q92570-1, residues 393–626); expressed in transfected cells; host or cells: HEK293T
T1 sequence (Q92570 393-626): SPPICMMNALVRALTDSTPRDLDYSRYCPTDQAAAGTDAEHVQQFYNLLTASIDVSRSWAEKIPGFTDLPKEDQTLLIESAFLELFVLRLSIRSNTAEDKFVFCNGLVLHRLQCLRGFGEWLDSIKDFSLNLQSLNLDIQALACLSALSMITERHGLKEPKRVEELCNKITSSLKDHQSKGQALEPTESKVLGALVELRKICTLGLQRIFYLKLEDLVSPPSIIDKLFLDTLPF


How the values were obtained:
Gal4-VP16 = molecular target: T2, Gal4-VP16 (Human herpesvirus 1, UniProt P06492); type: cell-based; details: n ≥ 4
T2 construct: host or cells: HEK293T

Nurr1–NCoR-1 interaction = molecular target: T3, Nurr1–NCoR-1 interaction (Homo sapiens, UniProt P43354); experiment: Nurr1–NCoR-1 interaction HTRF (GFP-Nurr1 LBD titrated against Tb-labeled NCoR-1); type: biochemical; details: cell-free; ligand fixed at 100 µM
T3 construct: Nurr1 (uniprot entry: P43354-1, residues 364–598); His10-Tag (N, cleaved yes); made in house; host or cells: E. coli T7 express (with pGro7)
Description: Since ligand concentration was fixed in this setting, interference with the HTRF system is less prone to generate potential artifacts.
To maintain a constant GFP concentration, free GFP protein was added to the dilution series. The experiments were performed in HTRF assay buffer (150 mM KF, 25 mM HEPES pH 7.5 (KOH), 5% (w/v) Glycerol, supplemented with 0.1% (w/v) CHAPS and 5 mM DTT) with 1% DMSO in an assay volume of 20 µl. After 1 h incubation at RT, fluorescence intensities after excitation at 340 nm were recorded at 520 nm for GFP acceptor fluorescence and 620 nm for Tb-SA donor fluorescence and the HTRF signal was calculated as described above.

Nur77 = molecular target: T4, Nur77 (Homo sapiens, UniProt P22736); experiment: Gal4-Nur77 hybrid reporter gene assay in HEK293T cells; type: cell-based; details: for Nur77 min./max. activation: compared to 0.1% DMSO; for Nur77 activity 10μM (mean fold activation) / Nur77 activity 30μM (mean fold activation): primary screen, n ≥ 2, ^# not significant vs VP16 control
T4 construct: Nur77 (uniprot entry: hNUR77–P22736, residues 358–598); expressed in transfected cells; host or cells: HEK293T

NOR1 = molecular target: T1, NOR1; experiment: Gal4-NOR1 hybrid reporter gene assay in HEK293T cells; type: cell-based; details: for NOR1 min./max. activation: compared to 0.1% DMSO; for Nor1 activity 10μM (mean fold activation) / Nor1 activity 30μM (mean fold activation): primary screen, n ≥ 2, ^# not significant vs VP16 control
Nurr1 LBD homodimer = molecular target: T5, Nurr1 LBD homodimer (Homo sapiens, UniProt P43354); experiment: Nurr1 homodimerization HTRF (GFP-Nurr1 LBD vs Tb-labeled Nurr1 LBD); type: biochemical; details: cell-free; ligand 100 µM
T5 construct: Nurr1 (uniprot entry: P43354-1, residues 364–598); MBP-Asn10 linker (N, cleaved yes); His8-Tag (N, cleaved yes); His10-Tag (N, cleaved yes); made in house; host or cells: E. coli T7 express (with pGro7)
Description: Strength and modulation of the formation of the heterodimer composed of the LBDs of Nurr1 and RXRα was investigated by titration of GFP-RXRα LBD against a fixed concentration of Nurr1 LBD. Assay solutions were prepared in HTRF assay buffer supplemented with 0.1% (w/v) CHAPS as well as 1% DMSO with test compounds at 100 µM or DMSO alone as negative control. […] Free GFP was added to keep the total GFP content stable at 4 µM throughout the entire series in order to suppress artefacts from changes in degree of diffusion enhanced FRET. Samples were equilibrated at RT for 2 h before FI520 and FI620 were recorded after excitation at 340 nm, and the HTRF signal was calculated as described above.

NurRE: Nurr1 homodimer = molecular target: T6, NurRE: Nurr1 homodimer (Homo sapiens, UniProt P43354); experiment: Full-length Nurr1 reporter gene assay on NurRE response element; type: cell-based; details: mean ± SD
T6 construct: the activity of full-length human Nurr1 in cellular settings; host or cells: HEK293T

[1] = molecular target: T7, DR5: Nurr1–RXRα heterodimer (Homo sapiens, UniProt P43354); experiment: Full-length Nurr1 reporter gene assay on DR5 response element; type: cell-based; details: mean ± SD
T7 construct: the activity of full-length human Nurr1 in cellular settings; host or cells: HEK293T

NBRE: Nurr1 monomer = molecular target: T8, NBRE: Nurr1 monomer (Homo sapiens, UniProt P43354); experiment: Full-length Nurr1 reporter gene assay on NBRE response element; type: cell-based
T8 construct: the activity of full-length human Nurr1 in cellular settings; host or cells: HEK293T

Nurr1 = molecular target: T9, Nurr1 (Homo sapiens, UniProt P43354); experiment: Gal4-Nurr1 hybrid reporter gene assay in HEK293T cells; type: cell-based; details: for Nurr1 activity 10μM (mean fold activation) / Nurr1 activity 30μM (mean fold activation): primary screen, n ≥ 2, ^# not significant vs VP16 control; for Nurr1-dependent reporter activity in primary screen (fold activation): 10 or 30 µM; for Gal4-Nurr1 maximum/minimum activation: vs 0.1% DMSO
T9 construct: Nurr1 (uniprot entry: hNURR1–P43354, residues 360–598); expressed in transfected cells; host or cells: HEK293T

PPAR; RXRα; RARα = experiment: Selectivity profiling in Gal4 hybrid reporter gene assays outside the NR4A family; type: cell-based, human; details: rel. activation vs reference agonists at 1 µM; n ≥ 4
[2] = molecular target: T10, biotinylated recombinant Nurr1 LBD (Tb-labeled through Tb-cryptate streptavidin) (human, UniProt P43354-1 364-598, biotin on the lysine residue in the Avi-Tag); experiment: AlphaScreen or HTRF; co-regulator recruitment: biotinylated Nurr1 LBD 3 nM on Tb-SA 3 nM (donor), fluorescein-labeled peptide 100 nM (acceptor); HTRF assay buffer (25 mM HEPES pH 7.5, 150 mM KF, 10% glycerol, 5 mM DTT) with 0.1% CHAPS; 1% DMSO alone or with AQ, CQ, MFA, parecoxib or oxaprozin at 100 µM (dose-response too); 2 h at RT; details: both partners purified
T10 construct: In the assays coupled to terbium cryptate streptavidin conjugate (Tb-SA) as FRET donor; also called Tb-labeled Nurr1 LBD; Tb-cryptate-labeled Nurr1 LBD; source: E. coli T7 express with pGro7, purified (IMAC, TEV cleavage, amylose resin, birA biotinylation, monomeric avidin, SEC); not shown: MBP, N-terminal, cleaved; His8, N-terminal, cleaved; Avi-Tag, N-terminal, kept

[3] = full-length human Nurr1, HEK293T
[4] = full-length human Nurr1 and RXRα overexpressed, HEK293T
[5] = full-length human Nurr1, HEK293T, mean ± SD

T6 sequence (P43354 whole entry): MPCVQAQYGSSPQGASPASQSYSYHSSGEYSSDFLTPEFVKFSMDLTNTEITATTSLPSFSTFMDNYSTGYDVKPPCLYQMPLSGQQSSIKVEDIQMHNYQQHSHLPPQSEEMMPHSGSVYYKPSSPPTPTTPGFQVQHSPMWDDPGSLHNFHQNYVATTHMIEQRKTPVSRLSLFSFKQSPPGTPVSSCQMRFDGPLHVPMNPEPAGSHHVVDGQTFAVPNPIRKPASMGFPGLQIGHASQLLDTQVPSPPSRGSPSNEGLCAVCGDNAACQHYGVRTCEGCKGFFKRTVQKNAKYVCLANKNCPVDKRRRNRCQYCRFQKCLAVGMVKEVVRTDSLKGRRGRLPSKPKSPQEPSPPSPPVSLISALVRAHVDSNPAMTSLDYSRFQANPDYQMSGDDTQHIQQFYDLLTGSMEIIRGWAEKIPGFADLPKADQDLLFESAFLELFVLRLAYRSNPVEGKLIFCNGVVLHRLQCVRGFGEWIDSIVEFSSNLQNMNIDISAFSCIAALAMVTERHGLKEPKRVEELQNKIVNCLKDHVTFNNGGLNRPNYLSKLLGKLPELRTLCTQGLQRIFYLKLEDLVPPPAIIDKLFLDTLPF
T7 sequence (P43354 whole entry, one chain of several): as the sequence (P43354 whole entry) above
T8 sequence (P43354 whole entry): as above
T9 sequence (P43354 360-598): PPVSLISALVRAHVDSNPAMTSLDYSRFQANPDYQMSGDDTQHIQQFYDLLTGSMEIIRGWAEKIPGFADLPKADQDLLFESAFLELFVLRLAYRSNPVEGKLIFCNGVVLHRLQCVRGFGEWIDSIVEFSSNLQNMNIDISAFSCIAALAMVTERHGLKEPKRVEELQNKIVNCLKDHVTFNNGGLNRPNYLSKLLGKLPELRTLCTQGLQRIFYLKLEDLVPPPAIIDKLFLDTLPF
T4 sequence (P22736 358-598): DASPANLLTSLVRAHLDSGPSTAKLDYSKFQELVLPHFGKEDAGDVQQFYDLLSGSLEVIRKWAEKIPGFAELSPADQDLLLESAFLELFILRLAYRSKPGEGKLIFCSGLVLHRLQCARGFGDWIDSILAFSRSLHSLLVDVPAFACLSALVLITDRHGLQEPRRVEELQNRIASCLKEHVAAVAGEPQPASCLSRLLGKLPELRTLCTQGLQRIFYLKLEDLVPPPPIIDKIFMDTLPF
T5 sequence (P43354 364-598): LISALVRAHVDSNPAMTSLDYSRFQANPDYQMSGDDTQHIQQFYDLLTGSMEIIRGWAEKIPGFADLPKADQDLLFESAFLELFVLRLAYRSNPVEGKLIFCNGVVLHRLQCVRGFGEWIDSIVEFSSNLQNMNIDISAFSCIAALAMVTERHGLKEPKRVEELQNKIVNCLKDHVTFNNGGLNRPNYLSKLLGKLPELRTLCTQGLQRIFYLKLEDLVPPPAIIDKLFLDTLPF
T3 sequence (P43354 364-598): as above

Molecule	Nur77 activity 10μM (mean fold activation) (Nur77)	Nur77 activity 30μM (mean fold activation) (Nur77)	Nurr1 activity 10μM (mean fold activation) (Nurr1)	Nurr1 activity 30μM (mean fold activation) (Nurr1)	Nor1 activity 10μM (mean fold activation) (NOR1)	Nor1 activity 30μM (mean fold activation) (NOR1)	also measured
CCC(=O)NS(=O)(=O)c1ccc(-c2c(-c3ccccc3)noc2C)cc1 [parecoxib]	–	–	–	–	–	–	Control experiments on Gal4-VP16 (non-specific reporter effects) (Gal4-VP16): no non-specific reporter suppression; NCoR-1 affinity (effect of ligand) (Nurr1–NCoR-1 interaction): Decreases affinity; IC50 (Nur77; HEK293T, mean ± SD, n≥3): 23.7 ± 0.2 µM; Nur77 min./max. activation (Nur77; mean ± SD): 0.1 ± 0.0; IC50 (NOR1; HEK293T, mean ± SD, n≥3, read-out: NOR1 IC50): 25 ± 4 µM; NOR1 min./max. activation (NOR1; mean ± SD): 0.22 ± 0.05; Homodimerization (effect of ligand) (Nurr1 LBD homodimer): diminished Nurr1 dimer formation; IC50 (NurRE: Nurr1 homodimer; [3]): 21 µM; NurRE: Nurr1 homodimer maximum/minimum activation (NurRE: Nurr1 homodimer): 0.4 ± 0.1 fold; IC50 [1, 4]: 20 µM; DR5: Nurr1–RXRα heterodimer maximum/minimum activation [1]: 0.5 ± 0.1 fold; IC50 (NBRE: Nurr1 monomer; [5]): 15 µM; NBRE: Nurr1 monomer maximum/minimum activation (NBRE: Nurr1 monomer; mean ± SD): 0.41 ± 0.05 fold
Cc1ccc(Cl)c(Nc2ccccc2C(=O)O)c1Cl [MFA, Meclofenamic acid]	3.01 fold	toxic	3.60 fold	toxic	3.92 fold	toxic	Control experiments on Gal4-VP16 (non-specific reporter effects) (Gal4-VP16): clearly Nurr1 mediated; NCoR-1 affinity (effect of ligand) (Nurr1–NCoR-1 interaction): markedly reduced affinity; also recorded: Decreases affinity; EC50 (Nur77; HEK293T, mean ± SD, n≥3): 3.9 ± 0.7 µM; Nur77 min./max. activation (Nur77; mean ± SD): 3.3 ± 0.4; Nurr1-dependent reporter activity in primary screen (fold activation) (Nurr1): > 1.5 fold; EC50 (Nurr1; HEK293T, mean ± SD, n≥3): 4.7 µM; Gal4-Nurr1 maximum/minimum activation (Nurr1; mean ± SD): 3.52 ± 0.05 fold; Gal4-Nurr1 maximum/minimum activation (Nurr1; mean ± SD, listed as meclofenamic acid): 3.52 ± 0.05 fold and 3.52 ± 0.07 fold; EC50 (NOR1; HEK293T, mean ± SD, n≥3): 7.9 ± 0.8 µM; NOR1 min./max. activation (NOR1; mean ± SD): 5.5 ± 0.6; Homodimerization (effect of ligand) (Nurr1 LBD homodimer): entirely prevented homodimerization; also recorded: Decreases dimerization; IC50 (NurRE: Nurr1 homodimer; [3]): 5.2 µM; NurRE: Nurr1 homodimer maximum/minimum activation (NurRE: Nurr1 homodimer): 0.70 ± 0.01 fold; IC50 [1, 4]: 10.7 µM; DR5: Nurr1–RXRα heterodimer maximum/minimum activation [1]: 0.79 ± 0.01 fold; NBRE: Nurr1 monomer activity in words (NBRE: Nurr1 monomer; [3]): Inactive; Selectivity over PPAR, RXRα, RARα (PPAR; RXRα; RARα): confirmed selectivity
Cc1onc(-c2ccccc2)c1-c1ccc(S(N)(=O)=O)cc1 [valdecoxib]	0.90 fold	0.82 fold	0.79 fold	0.54 fold	1.05 fold	0.76 fold	Control experiments on Gal4-VP16 (non-specific reporter effects) (Gal4-VP16): no non-specific reporter suppression; Nurr1-dependent reporter activity in primary screen (fold activation) (Nurr1): < 0.80 fold; IC50 (Nurr1; HEK293T, mean ± SD, n≥3): 13 ± 3 µM; Gal4-Nurr1 maximum/minimum activation (Nurr1; mean ± SD): 0.52 ± 0.04 fold; Selectivity over PPAR, RXRα, RARα (PPAR; RXRα; RARα): confirmed selectivity
CCN(CC)CCCC(C)Nc1ccnc2cc(Cl)ccc12 (stereo not drawn) [CQ, chloroquine]	–	–	–	–	–	–	NCoR-1 affinity (effect of ligand) (Nurr1–NCoR-1 interaction): promoted the Nurr1–NCoR-1 interaction; also recorded: Enhances affinity; EC50 (Nurr1; HEK293T, mean ± SD, n≥3): 47 µM; Homodimerization (effect of ligand) (Nurr1 LBD homodimer): promoted homodimerization; also recorded: Promotes dimerization; EC50 (NurRE: Nurr1 homodimer; [3]): 54 µM; EC50 [1, 4]: 57 µM; EC50 (NBRE: Nurr1 monomer; [5]): 38 µM
CN1C(C(=O)Nc2ccccn2)=C(O)c2sccc2S1(=O)=O [tenoxicam]	0.98 fold	0.98 fold	1.04 fold	0.99 fold	0.95 fold	0.90 fold	–
O=C(O)Cc1ccccc1Nc1c(Cl)cccc1Cl [diclofenac]	0.94 fold	toxic	1.19 fold	toxic	1.11 fold	toxic	–
CC(C(=O)O)c1cccc(C(=O)c2ccccc2)c1 (stereo not drawn) [ketoprofen]	1.04 fold	0.88 fold	1.00 fold	0.94 fold	1.10 fold	0.96 fold	–
Nc1c(CC(=O)O)cccc1C(=O)c1ccc(Br)cc1 [bromfenac]	1.08 fold	1.03 fold	1.09 fold	1.12 fold	1.26 fold	1.09 fold	–
CCc1cccc2c3c([nH]c12)C(CC)(CC(=O)O)OCC3 (stereo not drawn) [etodolac]	0.85 fold	0.90 fold	1.06 fold	0.93 fold	0.95 fold	0.91 fold	–
CC(C(=O)O)c1ccc(C(=O)c2ccccc2)s1 (stereo not drawn) [tiaprofenic acid]	1.35 fold	1.38 fold	1.52 fold	1.46 fold	1.37 fold	1.42 fold	Control experiments on Gal4-VP16 (non-specific reporter effects) (Gal4-VP16): non-specific activity; Nurr1-dependent reporter activity in primary screen (fold activation) (Nurr1): > 1.5 fold
CC(C(=O)O)c1ccc2c(c1)CC(=O)c1ccccc1S2 (stereo not drawn) [zaltoprofen]	0.80 fold	0.84 fold	0.97 fold	0.94 fold	0.89 fold	0.84 fold	–
CC(C)Cc1ccc(C(C)C(=O)O)cc1 (stereo not drawn) [ibuprofen]	0.99 fold	0.89 fold	1.02 fold	0.90 fold	0.95 fold	0.96 fold	–
fluorescein-HASTNMGLEAIIRKALMGKYDQW (also called NCoR-2; source: bought: ThermoFisher Scientific (Life Technologies)) [silencing mediator for retinoid and thyroid hormone receptor (SMRT) ID2 peptide, fluorescein-labeled]	–	–	–	–	–	–	binding result [2]: binds
fluorescein-RTHRLITLADHICQIITQDFARN (also called NCoR-1; source: bought: ThermoFisher Scientific (Life Technologies)) [nuclear receptor co-repressor (NCOR) ID1 peptide, fluorescein-labeled]	–	–	–	–	–	–	binding result [2]: binds
fluorescein-VTLTSPLLVNLLQSDISAG (also called TRBP; source: bought: ThermoFisher Scientific (Life Technologies)) [nuclear receptor co-activator 6 (NCoA6, also termed PRIPRAP250) peptide, fluorescein-labeled]	–	–	–	–	–	–	binding result [2]: binds
fluorescein-SHQKVTLLQLLLGHKNEEN (also called RIP140L6; source: bought: ThermoFisher Scientific (Life Technologies))	–	–	–	–	–	–	binding result [2]: binds
fluorescein-LPYEGSLLLKLLRAPVEEV (source: bought: ThermoFisher Scientific (Life Technologies)) [D22 peptide, fluorescein-labeled]	–	–	–	–	–	–	binding result [2]: binds
